Laboratory results: patent US20220402873A1, “NOVEL P62 LIGAND COMPOUND, AND COMPOSITION CONTAINING SAME FOR PREVENTING, AMELIORATING, OR TREATING PROTEINOPATHIES” (AUTOTAC INC., priority 2019, published 2022)

Tests used:
Assay type in all cases: cell-based
p62 protein [1] = molecular target: T1, p62 protein (Homo sapiens, UniProt Q13501); assay: Activity of p62 protein and delivery of ubiquitinated substrate proteins to autophagy by immunofluorescence staining (p62, FK2) and confocal microscopy; design: endogenous in cells; host or cells: HeLa; conditions: Hela cell line, 1 uM, 6 hours
T1 sequence (Q13501 whole entry): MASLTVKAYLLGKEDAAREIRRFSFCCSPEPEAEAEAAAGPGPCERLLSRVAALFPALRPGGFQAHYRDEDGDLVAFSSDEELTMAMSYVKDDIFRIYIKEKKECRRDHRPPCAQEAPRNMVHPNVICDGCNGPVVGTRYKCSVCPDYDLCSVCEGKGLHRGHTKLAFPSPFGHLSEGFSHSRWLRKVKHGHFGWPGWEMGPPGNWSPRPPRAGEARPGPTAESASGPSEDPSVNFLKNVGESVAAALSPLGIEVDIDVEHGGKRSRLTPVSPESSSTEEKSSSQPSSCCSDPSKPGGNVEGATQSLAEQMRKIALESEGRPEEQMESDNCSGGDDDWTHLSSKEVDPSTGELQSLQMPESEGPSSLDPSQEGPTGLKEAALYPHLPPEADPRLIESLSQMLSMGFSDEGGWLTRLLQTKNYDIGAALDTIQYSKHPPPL
Experimental: Immunofluorescence staining was performed using p62 and FK2 as markers to determine the level of the activity of p62 protein of the compounds (Examples 1-20). In order to determine the level of p62 activity and autophagy activity by the novel p62 ligand and its isomers in the cultured cells, the Hela cell line derived from cervical cancer patients was treated with a novel p62 ligand compound (Example 1 (ATB10048), Example 2 (ATB10047), Example 3 (ATB10049), Example 5 (ATB10050), Example 4 (ATB10051), Example 7 (ATB10052), Example 6 (ATB10056), Example 8 (ATB10057), Example 9 (ATB10060), Example 10 (ATB10072), Example 11 (ATB10075), Example 12 (ATB10078), […], Example 14 (ATB10080), Example 15 (ATB10081), Example 16 (ATB10087)), Example 17 (ATB0096), Example 18 (ATB10097), Example 19 (ATB10099) and Example 20 (ATB10100)) and cultured, and then the level of puncta expression and location of FK2, which was a marker of the protein to be delivered to and degraded in the autophagy through the mediation of the intracellular ubiquitinated p62, and the puncta local co-existence with p62 were observed.
For immunofluorescence staining, a cover glass was placed on a 24-well plate, cells were dispensed and cultured for 24 hours, and then 1 uM of the novel p62 ligand according to the present invention was treated. After culturing for an additional 6 hours for the action of the compound, the medium was removed, and the cells were fixed using formaldehyde at room temperature. In order to prevent non-specific staining, the cells were reacted with a blocking solution at room temperature for 1 hour, and then the LC3 antibody diluted at a certain ratio was treated with a blocking solution and then reacted at room temperature for 1 hour. After the antibody-treated cells were washed 3 times with PBS, the goat-derived secondary antibody was diluted at a certain ratio using the blocking solution, and then reacted at room temperature for 30 minutes. After further washing with PBS three times, and DAPI staining was performed for intracellular nuclear staining. Then, the level of expression of p62 or FK2, the level of intracellular puncta formation, and the level of coexistence in the cells were observed by a confocal microscope.

p62 protein [2] = molecular target: T1, p62 protein; assay: Activity of p62 protein and delivery to autophagosome by immunofluorescence staining (p62, LC3-GFP) and confocal microscopy; design: endogenous in cells; host or cells: HeLa; conditions: Hela-LC3-GFP cell line, 5 uM, 24 hours
Experimental: Immunofluorescence staining was performed using p62 and FK2 marker to determine the level of activity of p62 protein of the compounds (Examples 1-20). In order to determine the level of p62 activity and autophagy activity by the novel p62 ligand and its isomers in cultured cells, Hela-LC3-GFP cell line derived from cervical cancer patients was treated with the novel p62 ligand compounds (Example 2 (ATB10047), Example 3 (ATB10049), Example 4 (ATB10051), Example 6 (ATB10056), Example 9 (ATB10060), Example 12 (ATB10078), Example 16 (ATB10087) and Example (ATB10097)) and cultured. Then, the level of puncta expression and location of LC3-GFP, which is an essential autophagosome marker for macroautophagy, and the puncta local co-existence of p62 were observed.
For immunofluorescence staining, a cover glass was placed on a 24-well plate, cells were dispensed and cultured for 24 hours, and then treated with 5 uM of the novel p62 ligand according to the present invention. The cells were further cultured for an additional 24 hours for the action of the compound, the medium was removed, and the cells were fixed using formaldehyde at room temperature. In order to prevent non-specific staining, the cells were reacted with a blocking solution at room temperature for 1 hour, and then the LC3 antibody diluted at a certain ratio was treated with the blocking solution and then reacted at room temperature for 1 hour. After the antibody-treated cells were washed 3 times with PBS, the goat-derived secondary antibody was diluted at a certain ratio using the blocking solution, and then reacted at room temperature for 30 minutes. The cells were washed again with PBS three times and subjected to DAPI staining for intracellular nuclear staining, and then the level of expression of p62 or LC3, intracellular puncta formation, and intracellular coexistence level were observed by a confocal microscope.

p62 protein [3] = molecular target: T1, p62 protein; assay: Oligomerization activity of p62 protein by immunoblotting; design: endogenous in cells; conditions: HEK293 cell line lysate treated with test compounds for 2 hours at room temperature
Description: In order to evaluate the oligomerization activity efficacy of p62 protein of the compounds (Examples 1-20), HEK293 cell line, which is human embryonic kidney-derived cell, was collected. As representative compounds of the present compounds, the compounds of Examples 1-20 (Example 1 (ATB10048), Example 2 (ATB10047), Example 3 (ATB10049), Example 4 (ATB10051), Example 5 (ATB10050), Example 6 (ATB10056), Example 7 (ATB10052), Example 8 (ATB10057), Example 9 (ATB10060), Example 10 (ATB10072), Example 11 (ATB10075), Example 12 (ATB10078), Example 13 (ATB10079), Example 14 (ATB10080), Example 15 (ATB10081), Example 16 (ATB10087), Example 17 (ATB10096), Example 18 (ATB10097), Example 19 (ATB10099) and Example 20 (ATB10100)) were selected, and in order to measure the activation and oligomerization of the p62 protein in cells according to the treatment with these selected representative compounds, each cell was dispensed into a 100 phi dish. The cells were collected after additional culture for 24 hours so that the cells were completely attached to the surface of the plate, and 100 ul of lysis buffer (20 mM Tris (pH 7.4), 150 mM NaCl, 1% Triton X-100, 2 mM NaF, 2 mM EDTA, 2 mM beta-glycerophosphate, 5 mM sodium orthovanadate, 1 mM PMSF, leupeptin, aproteinin) was injected to each sample, and the cells were lysed. Based on the measured total protein concentration, each sample was treated with the test compounds for 2 hours at room temperature, and then a sample buffer was added and reacted at 95° C. for 10 minutes. 25 ul was taken from the samples after the reaction was completed and dispensed into each well of an acrylamide gel, and immunoblotting was performed.

| Compound | delivery of ubiquitinated proteins marked with FK2 to autophagosome mediated by p62 (FIGS. 3a to 3d) (p62 protein [1]) | targeting of activated, oligomerized p62 protein to the autophagosome (FIG. 4) (p62 protein [2]) | p62 protein oligomerization activity (immunoblot, FIGS. 2a to 2d) (p62 protein [3]) |
| --- | --- | --- | --- |
| O=C(CO)NCc1ccc(OCc2ccccc2)cn1 [Example 3, N-((5-(benzyloxy)pyridin-2-yl)methyl)-2-hydroxyacetamide] | show the efficacy of delivering the proteins to be delivered to and degraded by autophagosome | show the efficacy of targeting them to the autophagosome | increasing the p62 protein oligomerization activity |
| OCCNCc1ccc(OCc2ccccc2)o1 [Example 18, 2-(((5-(benzyloxy)-furan-2-yl)methyl)amino)ethan-1-ol] | show the efficacy of delivering the proteins to be delivered to and degraded by autophagosome | show the efficacy of targeting them to the autophagosome | increasing the p62 protein oligomerization activity |
| COC(=O)CCNC[C@@H](O)COc1cc(OCc2ccccc2)ccn1 [Example 12, methyl (R)-3-((3-((4-(benzyloxy)pyridin-2-yl)oxy)-2-hydroxypropyl)amino)propanoate] | show the efficacy of delivering the proteins to be delivered to and degraded by autophagosome | show the efficacy of targeting them to the autophagosome | increasing the p62 protein oligomerization activity |
| O=C(CO)NCc1cc(OCc2ccccc2)ccn1 [Example 4, N-((4-(benzyloxy)pyridin-2-yl)methyl)-2-hydroxyacetamide] | show the efficacy of delivering the proteins to be delivered to and degraded by autophagosome | show the efficacy of targeting them to the autophagosome | increasing the p62 protein oligomerization activity |
| OCCNCc1ccc(CCc2ccccc2)o1 [Example 16, 2-(((5-phenethylfuran-2-yl)methyl)amino)ethan-1-ol] | show the efficacy of delivering the proteins to be delivered to and degraded by autophagosome | show the efficacy of targeting them to the autophagosome | increasing the p62 protein oligomerization activity |
| OCCNCc1ncc(OCc2ccccc2)cn1 [Example 9, 2-(((5-(benzyloxy)pyrimidin-2-yl)methyl)amino)ethan-1-ol] | show the efficacy of delivering the proteins to be delivered to and degraded by autophagosome | show the efficacy of targeting them to the autophagosome | increasing the p62 protein oligomerization activity |
